Laboratory results: patent US20180185520A1, “COLLAGEN IMAGING COMPOSTIONS” (Collagen Medical, LLC, priority 2015, published 2018)
Bridge positions count the residues as written; N and C are the ends. Square brackets hold non-standard residues; d marks the D form. Primed or numbered codes have the meaning given here. Ends that are not written are not given here. Peptide text beside a SMILES is read from it. * marks the point of attachment. X1 = O=C(O)CN1CCN(CC(=O)O)CCN([C@H](CCC(=O)*)C(=O)O)CCN(CC(=O)O)CC1; GdDOTAGA″ = gadolinium DOTAGA chelate, amide-bonded; Bip = N[C@@H](Cc1ccc(-c2ccccc2)cc1)C(=O)O

What was measured:
[1] = biological target: T1, human type I collagen (Homo sapiens, UniProt P02452+P08123); assay: Collagen binding assay, dried human collagen in microtiter plate; conditions: 37° C., pH 7.4
T1 construct: purchased Advanced Biomatrix 5007-A
T1 sequence (P02452 162-1218 limits assumed): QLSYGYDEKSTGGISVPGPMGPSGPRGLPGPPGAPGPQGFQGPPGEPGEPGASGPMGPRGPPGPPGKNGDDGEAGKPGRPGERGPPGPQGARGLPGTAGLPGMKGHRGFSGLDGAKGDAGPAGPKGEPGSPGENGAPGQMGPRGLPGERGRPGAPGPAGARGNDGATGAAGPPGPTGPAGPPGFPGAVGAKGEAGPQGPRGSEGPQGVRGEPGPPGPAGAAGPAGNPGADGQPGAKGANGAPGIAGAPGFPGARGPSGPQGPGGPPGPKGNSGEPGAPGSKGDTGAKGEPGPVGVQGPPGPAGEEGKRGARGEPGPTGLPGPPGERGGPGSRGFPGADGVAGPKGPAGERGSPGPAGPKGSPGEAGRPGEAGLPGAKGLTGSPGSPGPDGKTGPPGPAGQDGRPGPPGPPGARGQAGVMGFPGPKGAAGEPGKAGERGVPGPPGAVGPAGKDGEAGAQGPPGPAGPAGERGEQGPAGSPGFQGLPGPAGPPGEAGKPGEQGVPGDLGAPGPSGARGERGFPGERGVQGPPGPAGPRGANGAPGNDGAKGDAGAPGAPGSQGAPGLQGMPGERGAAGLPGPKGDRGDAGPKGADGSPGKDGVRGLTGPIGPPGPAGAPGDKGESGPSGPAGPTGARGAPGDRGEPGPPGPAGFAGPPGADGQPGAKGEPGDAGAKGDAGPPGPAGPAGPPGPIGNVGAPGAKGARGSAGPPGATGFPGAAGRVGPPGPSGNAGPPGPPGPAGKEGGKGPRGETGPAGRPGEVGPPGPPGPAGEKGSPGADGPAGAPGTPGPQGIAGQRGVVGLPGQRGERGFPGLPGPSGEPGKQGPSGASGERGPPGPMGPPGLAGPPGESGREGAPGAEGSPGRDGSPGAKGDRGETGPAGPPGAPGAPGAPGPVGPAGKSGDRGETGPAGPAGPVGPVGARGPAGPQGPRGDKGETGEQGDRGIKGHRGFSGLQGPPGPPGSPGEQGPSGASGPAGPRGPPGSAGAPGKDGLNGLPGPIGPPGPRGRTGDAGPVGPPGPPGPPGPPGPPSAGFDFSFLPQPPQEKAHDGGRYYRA
T1 sequence (P08123 80-1119 limits assumed): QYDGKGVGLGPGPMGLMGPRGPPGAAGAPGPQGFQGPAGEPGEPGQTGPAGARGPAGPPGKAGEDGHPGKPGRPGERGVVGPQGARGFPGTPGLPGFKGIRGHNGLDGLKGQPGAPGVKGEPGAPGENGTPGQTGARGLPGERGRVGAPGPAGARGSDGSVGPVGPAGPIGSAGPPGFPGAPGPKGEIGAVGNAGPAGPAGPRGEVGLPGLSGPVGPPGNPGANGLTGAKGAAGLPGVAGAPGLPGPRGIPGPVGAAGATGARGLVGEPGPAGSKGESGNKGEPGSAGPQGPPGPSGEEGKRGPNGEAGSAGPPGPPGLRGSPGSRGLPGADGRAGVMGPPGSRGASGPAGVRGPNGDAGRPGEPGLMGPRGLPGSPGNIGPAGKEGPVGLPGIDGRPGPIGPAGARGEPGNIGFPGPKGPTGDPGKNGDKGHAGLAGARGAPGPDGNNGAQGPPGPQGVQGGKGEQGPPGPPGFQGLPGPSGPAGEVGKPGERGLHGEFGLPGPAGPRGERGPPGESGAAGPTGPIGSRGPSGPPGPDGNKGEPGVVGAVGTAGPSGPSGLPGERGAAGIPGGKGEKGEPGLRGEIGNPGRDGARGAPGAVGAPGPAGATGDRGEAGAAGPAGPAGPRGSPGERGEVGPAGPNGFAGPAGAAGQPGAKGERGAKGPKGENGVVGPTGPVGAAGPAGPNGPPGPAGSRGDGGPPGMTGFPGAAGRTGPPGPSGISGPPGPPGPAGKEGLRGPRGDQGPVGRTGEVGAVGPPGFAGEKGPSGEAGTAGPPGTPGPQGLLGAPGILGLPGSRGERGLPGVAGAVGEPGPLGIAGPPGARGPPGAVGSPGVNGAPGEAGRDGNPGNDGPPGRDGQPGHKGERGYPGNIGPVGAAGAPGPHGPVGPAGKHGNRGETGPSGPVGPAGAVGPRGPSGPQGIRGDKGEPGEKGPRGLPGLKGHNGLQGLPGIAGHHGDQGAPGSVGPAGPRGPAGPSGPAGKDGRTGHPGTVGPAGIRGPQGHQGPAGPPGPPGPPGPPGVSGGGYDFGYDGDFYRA
Method: 10 ml of a solution of 3 mg/ml of human type I collagen (VitroCol solution, Advanced Biomatrix, cat#5007-A) is dialyzed against 10 mM Phosphate (NaH2PO4), pH 4.2 at 4° C. with three changes of the dialysis buffer. The protein concentration is determined by liquid chromatography determination of hydroxyproline (P. Hutson, J. Chromatogr. B, 791 (2003) 427-430).
(§1) Ice-cold 1×PBS pH 10.8 is added to the collagen solution for a final collagen concentration of 10 μM, pH 7.4. Collagen solutions are gelled and dried down in the wells of a 96 well microtiter plate (Corning Polystyrene Flat Bottom, cat#3641). […] The final well content of gelled collagen is measured by determination of hydroxyproline and is around 180 μg/ml.
(§2) a serial dilution of 0.2 μM-30 μM of the peptide chelate is prepared in PBS, pH 7.4 ([…], of solution for each concentration). […] The concentration of free, unbound compound in the sample supernatants and the concentration of compound in the reserved (total) sample are determined by ICP-MS (Agilent 7500, gadolinium concentration). The concentration of compound bound to collagen is determined as [bound]=[total]−[unbound].
(§3) The binding of compounds to human, rat and dog collagen (5 μM) was measured over the concentration range 0.2-5 μM of Comp ID Nos.: 1-4. […]

[2] = biological target: T2, Canine collagen (Native canine Collagen Type I and III protein) (Canis lupus familiaris, UniProt O46392+Q9XSJ7); assay: Collagen binding assay, dried canine collagen in microtiter plate; conditions: 37° C., pH 7.4; read-out: Collagen Binding Dog (Kd)
T2 construct: purchased YO protein AB 739
T2 sequence (Q9XSJ7 158-1214 limits assumed): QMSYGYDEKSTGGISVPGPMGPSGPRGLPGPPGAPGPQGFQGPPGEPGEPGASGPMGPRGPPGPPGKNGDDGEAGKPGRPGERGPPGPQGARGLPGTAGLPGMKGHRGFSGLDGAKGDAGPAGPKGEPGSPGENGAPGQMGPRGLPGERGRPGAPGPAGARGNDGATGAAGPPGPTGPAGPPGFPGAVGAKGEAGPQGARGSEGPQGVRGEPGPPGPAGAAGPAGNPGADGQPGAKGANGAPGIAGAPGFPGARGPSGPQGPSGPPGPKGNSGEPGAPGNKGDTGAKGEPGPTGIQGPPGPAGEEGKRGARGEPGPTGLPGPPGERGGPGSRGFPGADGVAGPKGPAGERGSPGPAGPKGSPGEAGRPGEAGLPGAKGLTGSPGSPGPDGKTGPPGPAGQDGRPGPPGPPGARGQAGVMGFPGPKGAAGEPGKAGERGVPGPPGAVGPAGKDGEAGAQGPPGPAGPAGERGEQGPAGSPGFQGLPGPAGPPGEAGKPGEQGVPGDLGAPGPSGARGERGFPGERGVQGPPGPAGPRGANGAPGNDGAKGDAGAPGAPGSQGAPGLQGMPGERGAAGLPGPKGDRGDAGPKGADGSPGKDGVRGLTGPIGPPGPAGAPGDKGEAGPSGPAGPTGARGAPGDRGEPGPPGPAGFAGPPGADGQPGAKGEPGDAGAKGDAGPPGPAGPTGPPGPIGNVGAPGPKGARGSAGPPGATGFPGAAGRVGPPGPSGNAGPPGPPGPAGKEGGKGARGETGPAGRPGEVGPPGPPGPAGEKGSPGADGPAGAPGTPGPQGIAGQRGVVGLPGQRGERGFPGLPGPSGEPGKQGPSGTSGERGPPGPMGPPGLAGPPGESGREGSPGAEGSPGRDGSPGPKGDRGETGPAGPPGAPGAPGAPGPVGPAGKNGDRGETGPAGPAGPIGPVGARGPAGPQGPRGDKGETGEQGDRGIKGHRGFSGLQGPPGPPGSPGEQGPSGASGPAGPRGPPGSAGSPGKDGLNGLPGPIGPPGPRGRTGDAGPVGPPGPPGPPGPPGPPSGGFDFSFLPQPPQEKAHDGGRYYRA
T2 sequence (O46392 80-1119 limits assumed): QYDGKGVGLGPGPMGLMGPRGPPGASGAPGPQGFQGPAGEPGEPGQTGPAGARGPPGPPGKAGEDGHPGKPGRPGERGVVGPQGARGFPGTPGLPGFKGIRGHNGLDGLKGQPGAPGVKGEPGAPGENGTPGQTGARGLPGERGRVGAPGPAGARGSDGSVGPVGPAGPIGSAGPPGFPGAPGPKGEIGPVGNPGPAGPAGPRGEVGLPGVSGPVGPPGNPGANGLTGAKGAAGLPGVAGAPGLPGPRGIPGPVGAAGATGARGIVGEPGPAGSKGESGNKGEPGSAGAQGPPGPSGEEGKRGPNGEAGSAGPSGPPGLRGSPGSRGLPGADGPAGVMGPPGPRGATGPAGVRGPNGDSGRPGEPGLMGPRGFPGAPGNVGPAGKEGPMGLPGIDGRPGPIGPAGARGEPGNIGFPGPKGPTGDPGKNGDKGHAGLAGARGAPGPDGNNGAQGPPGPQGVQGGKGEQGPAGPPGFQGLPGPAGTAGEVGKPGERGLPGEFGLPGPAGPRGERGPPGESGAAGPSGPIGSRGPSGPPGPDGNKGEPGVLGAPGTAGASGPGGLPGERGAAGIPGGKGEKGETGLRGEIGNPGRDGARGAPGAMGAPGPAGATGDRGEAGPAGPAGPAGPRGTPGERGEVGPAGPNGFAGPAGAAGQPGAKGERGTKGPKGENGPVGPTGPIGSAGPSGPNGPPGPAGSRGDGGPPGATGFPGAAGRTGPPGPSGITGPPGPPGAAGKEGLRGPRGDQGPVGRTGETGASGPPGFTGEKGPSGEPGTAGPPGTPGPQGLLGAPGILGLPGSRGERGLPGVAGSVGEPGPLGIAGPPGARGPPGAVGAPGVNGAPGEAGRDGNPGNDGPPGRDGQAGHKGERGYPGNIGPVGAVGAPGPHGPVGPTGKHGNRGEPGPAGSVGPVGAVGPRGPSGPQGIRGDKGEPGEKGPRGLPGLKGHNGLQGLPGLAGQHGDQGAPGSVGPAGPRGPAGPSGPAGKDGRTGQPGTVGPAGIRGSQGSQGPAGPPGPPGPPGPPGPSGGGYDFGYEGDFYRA
Method: Canine collagen (Native canine Collagen Type I and III protein, YO protein AB, cat#739) is dissolved in 0.5 M acetic acid at 3.3 mg/ml by vortexing and shaking overnight at 4° C. The solution is then dialyzed against 10 mM Phosphate (NaH2PO4), pH 4.2 at 4° C. with three changes of the dialysis buffer.
as §1, with “cat#3641). 70 μl of 10 μM collagen is aliquoted into each well in every other lane in the plate (48 wells) and the plate is incubated at 37° C. for 18 hours to form a gel and evaporate to dryness.” for “cat#3641).”
as §2, §3

[3] = biological target: rat collagen (acid soluble, type I, rat tail, Millipore Inc, cat#08-115) (rat) (UniProt P02454); assay: dried collagen film in microtiter plate; unbound compound by ICP-MS (Gd); fit to 1 binding site

| Kd [3] [µM] | Molecule | other results |
| --- | --- | --- |
|  | CC(C)C[C@H](NC(=O)[C@@H]1CSSC[C@H](NC(=O)[C@H](Cc2c[nH]cn2)NC(=O)[C@H](Cc2c[nH]c3ccccc23)NC(=O)[C@H](Cc2ccc(O)cc2)NC(=O)[C@H](CCCCNC(=O)CC[C@H](C(=O)O)N2CCN(CC(=O)O)CCN(CC(=O)O)CCN(CC(=O)O)CC2)NC(=O)CC[C@H](C(=O)O)N2CCN(CC(=O)O)CCN(CC(=O)O)CCN(CC(=O)O)CC2)C(=O)N[C@@H]([C@@H](C)O)C(=O)N[C@@H]([C@@H](C)O)C(=O)N[C@@H](CCCCNC(=O)CC[C@H](C(=O)O)N2CCN(CC(=O)O)CCN(CC(=O)O)CCN(CC(=O)O)CC2)C(=O)N[C@@H](Cc2ccccc2)C(=O)N2CCC[C@H]2C(=O)N[C@@H](Cc2c[nH]cn2)C(=O)N[C@@H](Cc2c[nH]cn2)C(=O)N[C@@H](Cc2ccc(O)cc2)C(=O)N1)C(=O)N[C@@H](Cc1ccc(O)cc1)C(=O)N[C@@H](Cc1ccc(-c2ccccc2)cc1)C(N)=O [Compound ID No. 3] (X1-K(X1)YWHCTTK(X1)FPHHYCLY[Bip]-NH2; disulfide 5-14) | Kd [1]: 29.8 µM |
|  | CC(C)[C@H](NC(=O)[C@@H]1CSSC[C@H](NC(=O)[C@H](Cc2c[nH]cn2)NC(=O)[C@H](Cc2c[nH]c3ccccc23)NC(=O)[C@H](CCCCNC(=O)CC[C@H](C(=O)O)N2CCN(CC(=O)O)CCN(CC(=O)O)CCN(CC(=O)O)CC2)NC(=O)CC[C@H](C(=O)O)N2CCN(CC(=O)O)CCN(CC(=O)O)CCN(CC(=O)O)CC2)C(=O)N[C@@H](Cc2ccc(O)cc2)C(=O)N[C@@H]([C@@H](C)O)C(=O)N[C@@H](CCCCNC(=O)CC[C@H](C(=O)O)N2CCN(CC(=O)O)CCN(CC(=O)O)CCN(CC(=O)O)CC2)C(=O)N[C@@H](Cc2ccccc2)C(=O)N2CCC[C@H]2C(=O)N[C@@H](Cc2c[nH]cn2)C(=O)N[C@@H](Cc2c[nH]cn2)C(=O)N[C@@H](Cc2ccc(O)cc2)C(=O)N1)C(=O)N[C@@H](Cc1ccc(O)cc1)C(=O)N[C@@H](Cc1ccc(-c2ccccc2)cc1)C(N)=O [Compound ID No. 4] (X1-K(X1)WHCYTK(X1)FPHHYCVY[Bip]-NH2; disulfide 4-13) | Kd [2]: 2 µM |
| 4.6 | KWHCYTKFPHHYCVY[Bip]-NH2 (disulfide 4-13; also: GdDOTAGA on N-terminal nitrogen or Lys epsilon amines, sites not fixed) [Compound ID No. 4] |  |
| 20.6 | {GdDOTAGA″}-K(GdDOTAGA″)WHCTTK(GdDOTAGA″)FPHHYCLY[Bip]-NH2 (disulfide 4-13) [Compound ID No. 2] |  |
